Results on three substances are retold here after patent US20240174744A1, “METHODS OF TREATMENT USING PROTEIN BINDERS TO IRHOM2 EPITOPES” (SCIRHOM GMBH, priority 2021, published 2024).

In the test the test system is DSS-induced colitis (IBD). As to the kind of experiment: DSS-induced colitis (IBD) model in humanized NCG mice. Conditions: 25 mg/kg i.p. every two days, 8 mice per group. The format is in vivo, mouse. How it is done:
In the following study, an in vivo model was performed to verify the inhibitory effects of the antibodies of the present disclosure on DSS-induced colitis (IBD) in a mouse model for acute IBD. The experiment was carried out with female NOD/Shi-scid/IL-2Rγ null immunodeficient mouse strain (NCG). Mice were humanized using hematopoietic stem cells (CD34+) isolated from human cord blood following TransCure bioServices's proprietary humanization protocol. Only mice with a humanization rate (hCD45/total CD45) above 25% were used.
On day 1, mice were randomized based on the humanization rate and cord blood donors, acute colitis was induced by adding 3% of DSS (Sigma Aldrich, France) in drinking water (MilliQ water provided ad libitum) during […] from D1 to D7 and renewed every 2 days (only for groups #2, #3, #4, #5 and #6). For the recovery period, after the DSS cycle, the DSS solution was removed and replaced by MilliQ water (washout period) during 5 days from day 8 to day 12. […]
Endoscopy score was determined at D5 and D10. […] The endoscope was rectally inserted, and photographs of the endoscopic procedure were recorded. […]
Colon damages were evaluated during the endoscopy using TransCure bioServices's murine endoscopic index of colitis severity (MEICS) that consists of colon thickening, changes of vascular pattern, visible fibrin, granularity of mucosal surface and stool consistency as scoring parameters. […]
All mice were clinically monitored during the whole study for unexpected signs of distress, changes in body weight and evolution of disease severity. These parameters were recorded daily and each mouse was assigned a global IBD score, consisting of body weight, diarrhea & stool consistency and bleeding. The latter two were assessed by visually monitoring stool and mouse hairs around the anus and tail. Moreover, the mortality was also recorded.
Regarding “Tocilizumab: Tocilizumab (Roche, Switzerland), comparator group #4”, the “mice that survived the complete study period” value is “one out of 8”.

For Adalimumab, the “mice that survived the complete study period” value was “two out of 8”.

Turning to “Infliximab: Infliximab (Merck Sharp & Dohme, USA), comparator group #3”, the “mice that survived the complete study period” value is reported as “two out of 8”.
